Results as given in ChEMBL document CHEMBL1201862, “PubChem BioAssay data set” (2004).
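Each compound was tested at five concentrations against cells in 96-well plates for 48 hours. The concentration for 50% growth inhibition is given as GI50.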 Active and inactive are the calls of the source. Rule as the data show it: active = GI50 up to about 1.1 µM and inactive = higher.

What was measured:
Experiment in all cases: growth of human tumour cells (NCI), 48 h
BT-549 = system: BT-549
CAKI-1 = system: CAKI-1
HCC 2998 = system: HCC 2998
HCT-15 = system: HCT-15
HL-60 = system: HL-60
IGROV-1 = system: IGROV-1
KM12 = system: KM12
LOX IMVI = system: LOX IMVI
MCF7 = system: MCF7
MOLT-4 = system: MOLT-4
Malme-3M = system: Malme-3M
NCI-H23 = system: NCI-H23
NCI/ADR-RES = system: NCI/ADR-RES
PC-3 = system: PC-3
SF-539 = system: SF-539
SN12C = system: SN12C
SNB-19 = system: SNB-19
U-251 = system: U-251
UACC-257 = system: UACC-257
UO-31 = system: UO-31

Structure (SMILES)	GI50 (BT-549)	GI50 (CAKI-1)	GI50 (HCC 2998)	GI50 (HCT-15)	GI50 (HL-60)	GI50 (IGROV-1)	GI50 (KM12)	GI50 (LOX IMVI)	GI50 (MCF7)	GI50 (MOLT-4)	GI50 (Malme-3M)	GI50 (NCI-H23)	GI50 (NCI/ADR-RES)	GI50 (PC-3)	GI50 (SF-539)	GI50 (SN12C)	GI50 (SNB-19)	GI50 (U-251)	GI50 (UACC-257)	GI50 (UO-31)
Nc1nc(Cl)cc(NCC2(CO)CC(OCc3ccccc3)C2)n1 (configuration not stated)	35.9 µM (inactive)	> 100 µM (inactive)	> 100 µM (inactive)	65.6 µM	27.3 µM (inactive)	> 100 µM (inactive)	> 100 µM (inactive)	23.2 µM (inactive)	30.7 µM (inactive)	> 10 µM (inactive)	> 100 µM (inactive)	> 100 µM (inactive)	36.1 µM (inactive)	> 100 µM (inactive)	> 100 µM (inactive)	> 100 µM (inactive)	41.9 µM (inactive)	90.4 µM (inactive)	> 100 µM (inactive)	> 100 µM (inactive)
CC(=O)C1(c2ccccc2)CCN(Cn2sc3nc(C)cc(C)c3c2=O)CC1	38.8 µM (inactive)	35.9 µM (inactive)	25 µM (inactive)	26.5 µM	18.7 µM (inactive)	> 100 µM (inactive)	> 100 µM (inactive)	23.8 µM (inactive)	40 µM (inactive)	27.7 µM (inactive)	20.3 µM (inactive)	19.1 µM (inactive)	32 µM (inactive)	37.6 µM (inactive)	22.5 µM (inactive)	21.4 µM (inactive)	> 100 µM (inactive)	42.3 µM (inactive)	–	16.5 µM (inactive)
C=C(C(=O)O[C@H]1C/C(C)=C/CC/C(CO)=C/[C@H]2C(=O)OC(=C)[C@H]12)C(O)CO (some centres not stated)	14.4 µM (inactive)	4.46 µM (inactive)	16.4 µM (inactive)	8.05 µM	2.49 µM (inactive)	19.5 µM (inactive)	20.4 µM (inactive)	16.3 µM (inactive)	11.5 µM (inactive)	5.37 µM (inactive)	5.16 µM (inactive)	16.3 µM (inactive)	19.8 µM (inactive)	9.77 µM (inactive)	4.71 µM (inactive)	15.3 µM (inactive)	21.4 µM (inactive)	12.1 µM (inactive)	11.5 µM (inactive)	8.18 µM (inactive)
CCCN1C(=O)/C(=C\c2ccc(OC)c(OC)c2)S/C1=N\c1ccccc1	87.9 µM (inactive)	> 100 µM (inactive)	> 100 µM (inactive)	> 100 µM	> 100 µM (inactive)	> 100 µM (inactive)	> 100 µM (inactive)	> 100 µM (inactive)	> 100 µM (inactive)	> 100 µM (inactive)	> 100 µM (inactive)	> 100 µM (inactive)	> 100 µM (inactive)	> 100 µM (inactive)	24.7 µM (inactive)	> 100 µM (inactive)	27.5 µM (inactive)	27.8 µM (inactive)	> 100 µM (inactive)	> 100 µM (inactive)
CC(C)NC(=O)OCc1c(COC(=O)NC(C)C)c(-c2ccc[n+](COC(=O)Cc3ccccc3)c2)n2c1CCC2	24.1 µM (inactive)	9.48 µM (inactive)	> 100 µM (inactive)	55.5 µM	> 100 µM (inactive)	75.3 µM (inactive)	> 100 µM (inactive)	24 µM (inactive)	25.1 µM (inactive)	6.76 µM (inactive)	49 µM (inactive)	21.3 µM (inactive)	36.6 µM (inactive)	34 µM (inactive)	34.5 µM (inactive)	30.2 µM (inactive)	94.8 µM (inactive)	29.1 µM (inactive)	58.9 µM (inactive)	27.5 µM (inactive)
Cc1ccc2c(O)cc(-c3ccc(C)s3)nc2n1	0.804 µM (active)	0.811 µM (active)	0.805 µM (active)	0.0863 µM	0.0775 µM (active)	0.44 µM (active)	0.0912 µM (active)	0.472 µM (active)	0.27 µM (active)	0.624 µM (active)	0.94 µM (active)	0.277 µM (active)	0.129 µM (active)	0.234 µM (active)	0.325 µM (active)	0.556 µM (active)	0.644 µM (active)	0.413 µM (active)	16.6 µM (inactive)	0.439 µM (active)
C[C@@]1(O)C[C@@H](N2C(=O)O[C@@H](c3ccccc3)[C@H]2c2ccccc2)[C@@H]1COCc1ccccc1	17.5 µM (inactive)	22 µM (inactive)	19.8 µM (inactive)	24.4 µM	6.35 µM (inactive)	25 µM (inactive)	19.6 µM (inactive)	15.9 µM (inactive)	24.5 µM (inactive)	5.41 µM (inactive)	20.6 µM (inactive)	16.1 µM (inactive)	15.2 µM (inactive)	15.9 µM (inactive)	20.8 µM (inactive)	17.4 µM (inactive)	34.8 µM (inactive)	14.6 µM (inactive)	15.9 µM (inactive)	21.6 µM (inactive)
O=C1NCCN1/N=C/c1c(Cl)n(-c2ccccc2)c2ccccc12	15.4 µM (inactive)	17.3 µM (inactive)	17.8 µM (inactive)	17.6 µM	27.4 µM (inactive)	17.2 µM (inactive)	15.7 µM (inactive)	13.5 µM (inactive)	22.1 µM (inactive)	36.9 µM (inactive)	16.6 µM (inactive)	18.5 µM (inactive)	19.5 µM (inactive)	29 µM (inactive)	10.4 µM (inactive)	18.7 µM (inactive)	23.1 µM (inactive)	21.7 µM (inactive)	22.4 µM (inactive)	19.1 µM (inactive)
C=C(Cl)C(Cl)(CBr)CCCC(C)C (configuration not stated)	> 85.9 µM (inactive)	5.81 µM (inactive)	19.6 µM (inactive)	> 49.3 µM	12.1 µM (inactive)	> 100 µM (inactive)	11.8 µM (inactive)	> 100 µM (inactive)	12.4 µM (inactive)	> 100 µM (inactive)	> 100 µM (inactive)	> 100 µM (inactive)	27 µM (inactive)	13.2 µM (inactive)	9.98 µM (inactive)	> 100 µM (inactive)	18.7 µM (inactive)	8.73 µM (inactive)	14.6 µM (inactive)	16.3 µM (inactive)
O=C(Nc1ccccc1F)c1cc2ccc(O)cc2o/c1=N\c1cccc(C(F)(F)F)c1	2.67 µM (inactive)	3.79 µM (inactive)	8.2 µM (inactive)	3.59 µM	1.66 µM (inactive)	2.08 µM (inactive)	3.71 µM (inactive)	2.69 µM (inactive)	2.94 µM (inactive)	2.94 µM (inactive)	2.69 µM (inactive)	1.76 µM (inactive)	3.22 µM (inactive)	3.76 µM (inactive)	3.9 µM (inactive)	–	5.87 µM (inactive)	3.73 µM (inactive)	4.02 µM (inactive)	3.85 µM (inactive)
Cc1cccc(/C=N/NC(=S)N2CCCC2)n1	1.76 µM (inactive)	0.197 µM (active)	0.78 µM (active)	0.138 µM	0.0559 µM (active)	0.822 µM (active)	–	0.267 µM (active)	2.91 µM (inactive)	0.0687 µM (active)	0.0286 µM (active)	0.215 µM (active)	0.166 µM (active)	0.346 µM (active)	0.479 µM (active)	0.247 µM (active)	2.82 µM (inactive)	0.366 µM (active)	0.486 µM (active)	0.297 µM (active)
